{
  "source": "patent US20100258138A1",
  "about": "“RADIOLABELED 1-ACETATE PET IMAGING FOR RA[…] HEAD AND NECK CANCER” (priority 2006, published 2010)",
  "key": {"[1]": {"test_system": "primary tumors of head and neck squamous cell carcinoma", "test": "ACE-PET imaging of primary tumors", "type": "in vivo, human", "procedure": "(§1) None of the patients suffered from diabetes. […] All patients participating in the study provided informed consent.\n(§2) Six patients were studied with dedicated PET and four patients were investigated with PET/CT. A 32 minutes dynamic emission scan was performed immediately after intravenous injection of 10 MBq/kg body weight ACE. The scan time was 12×5s, 6×10s, 4×30s, 4×60s, 2×120s and 4×300s. Frame 30 (17-22 minutes after injection) generally provided the best image quality with highest tumor to background ratio and was therefore chosen for subsequent data analysis.\n(§3) Isoactivity pixel value=(MPVtumor+APVbackground)×50%"}, "[2]": {"test_system": "lymph node metastases of head and neck squamous cell carcinoma", "test": "ACE-PET imaging of metastases", "type": "in vivo, human", "procedure": "as §1, §2, §3"}, "salivary glands": {"test_system": "salivary glands", "test": "ACE-PET physiological uptake in normal tissue", "parameters": "species or system human", "conditions": "in vivo", "procedure": "as §2"}, "[3]": {"test_system": "primary tumors of head and neck squamous cell carcinoma", "conditions": "ten patients", "procedure": "(§4) Ten consecutive patients (median age 56, range 18-77 years), where of eight males and two females with histologically confirmed squamous cell carcinoma of the head and neck, were included in the study. None of the patients suffered from diabetes. […] Conventional staging of the tumors was performed by CT (n=9), MRI (n=1), histopathology and clinical examination. Histological confirmation was obtained by guided biopsies in all the primary tumors and most metastatic sites. […] All patients participating in the study provided informed consent. The study was accepted by the ethical committee of the participating hospital.\n(§5) In all patients, both FDG-PET and ACE-PET were performed before the radiotherapy treatment. ACE and FDG-PET scans were performed on the same or consecutive day, except for one patient where the two types of PET scanning were done five days apart. PET studies were carried out with a dedicated PET scanner (Siemens ECAT HR^+, Knoxville, Tenn., USA) or with a PET/CT (GE Discovery S T, Milwaukee, Wis., USA). All patients were normoglycemic and were fasted at least 6 hours before tracer injection.\n(§6) Whole-body scanning was performed one hour after intravenous injection of 5 MBq/kg body weight FDG. Six patients were examined by PET/CT and four patients were studied by PET alone. The patients were instructed to remain recumbent and avoid voicing and other uses of neck muscles during the uptake period.\n(§7) PET images were co-registered with the CT or MRI images in all patients by a normalized mutual information procedure supported by manual correction using Hermes Multimodality™ software (Nuclear Diagnostics, Stockholm, Sweden). FDG-PET and ACE-PET images were analyzed both qualitatively and quantitatively, using Hermes Volume Display™ version V2β. In qualitative analysis, PET images were interpreted visually by two nuclear medicine physicians and any disagreement was resolved by consensus. The tumor uptake of FDG and ACE was graded into negligible, mild, moderate and intensive compared to the contra-lateral or surrounding tissues. An abnormal uptake equal to or exceeding mild was considered positive. In quantitative analysis, the mean standardized uptake value (SUV) and tumor volumes delineated by ACE and FDG-PET were evaluated. SUV was calculated as mean radioactivity concentration in the volumes (Bq/cc) divided by injected dose (Bq) per kilogram body weight. […]\n(§8) Each tumor volume in FDG-PET and ACE-PET was delineated automatically by tracing an isoactivity pixel value set to 50% threshold of the maximum radioactivity corrected for background. The background was measured from a separately drawn region of interest (ROI) adjacent but at safe distance from the tumor. The isoactivity pixel value of each volume was calculated as: […]"}, "[4]": {"test_system": "lymph node metastases of head and neck squamous cell carcinoma", "conditions": "21 metastatic lesions", "procedure": "as §4, §5, §6, §7, §8"}},
  "note": "“And” between values parts separate entries of the source, which are not always exact repeats. Identical values can stand only once.",
  "data": [
    {"compound": "C[11C](=O)O", "note": "[ACE, ^11C-acetate]", "values": [
      {"measurement": "ACE-PET SUV", "setting": "[1]; primary tumor, individual patient (one line per patient), 10 MBq/kg i.v., frame 17-22 min after injection", "result": "3.7 and 3.8 and 2.7 and 5.7 and 10.6 and 4.9 and 3.9 and 9.2 and 2.5 and 6.0"},
      {"measurement": "ACE-PET Visual", "setting": "[1]; primary tumor, individual patient, visual grading of uptake vs contra-lateral or surrounding tissue", "result": "+ (2×) and +++ (4×) and ++ (4×)"},
      {"measurement": "ACE-PET SUV, Mean ± SD", "setting": "[1]; primary tumors, ten patients", "result": "5.3±2.7"},
      {"measurement": "range of ACE SUV", "setting": "[1]; primary tumors, ten patients", "result": "2.5-10.6"},
      {"measurement": "ACE SUV (mean±SD)", "setting": "[2]; 21 metastatic lesions", "result": "4.0±1.3"},
      {"measurement": "range of ACE SUV", "setting": "[2]; 21 metastatic lesions", "result": "2.4-6.2"},
      {"measurement": "ACE-PET SUV", "setting": "[2]; individual metastasis (one line per lesion), 10 MBq/kg i.v., frame 17-22 min", "result": "3.5 and 5.9 and 4.7 and 5.1 and 3.1 and 2.9 and 4.5 and 3.9 and 4.6 and 5.8 and 3.0 and 2.8 and 2.6 and 3.7 and 6.2 and 2.4 and 2.7"},
      {"measurement": "ACE-PET Visual", "setting": "[2]; individual metastasis, visual grading of uptake", "result": "+++ (6×) and ++ (9×) and − and + (5×)"},
      {"measurement": "physiological uptake of ACE in salivary glands", "setting": "salivary glands", "result": "normally high physiological uptake"}
    ]},
    {"compound": "OC[C@H]1OC(O)[C@H]([18F])[C@@H](O)[C@@H]1O", "note": "(stereo partly drawn) [FDG, ^18F-fluoro-2-deoxy-D-glucose]", "values": [
      {"measurement": "FDG-PET SUV, Mean ± SD", "setting": "[3]", "result": "9.6±7.0"},
      {"measurement": "range of FDG SUV", "setting": "[3]", "result": "1.9-24.5"},
      {"measurement": "FDG SUV (mean±SD)", "setting": "[4]", "result": "4.47±3.3"},
      {"measurement": "range of FDG SUV", "setting": "[4]", "result": "0.9-10.0"}
    ]}
  ]
}
